Experimental data: ChEMBL document CHEMBL3507680, “University of Dundee, Gates Library screen for HepG2 cell viability”

Assay: Human HepG2 cell viability assay in 384 well format
Format: toxicity, cell-based
Set-up: dose 125 nL, time 70.5 hour; concentration not given beside the values
Details: HepG2 cells, read-out: Inhibition
In the case of `Cc1cc(C(=O)N2CCn3cc(CN4CCN(C)CC4)nc3C2)no1`, the cytotoxicity at 70.5 h is reported as -11.8%. With `Cc1cccc(C(=O)N2CCC3(CC2)CC(c2cnn(C)c2)CO3)c1` (centres undefined) the cytotoxicity at 70.5 h was -15%. Compound `CNC(=O)N1CCc2nc(C(=O)NCc3cccc(OC)c3)sc2CC1` has a cytotoxicity at 70.5 h of 18%. Compound `O=C(NC1CC1)[C@@H]1CCO[C@@H]2CCN(Cc3ccco3)C[C@H]21` has a cytotoxicity at 70.5 h of -13.9%. Compound `CNC(=O)C1Cn2ccnc2C2(CCN(Cc3c(C)noc3C)CC2)O1` (centres undefined) has a cytotoxicity at 70.5 h of 21.5%. Compound `Cn1cc(C2COC3(CCN(C(=O)c4cccn4C)CC3)C2)cn1` (centres undefined) has a cytotoxicity at 70.5 h of 14.2%. Compound `Cn1cc(C2COC3(CCN(C(=O)c4ccn(C)n4)CC3)C2)cn1` (centres undefined) has a cytotoxicity at 70.5 h of -14.5%. For `CS(=O)(=O)N[C@@H]1CCO[C@]2(CCN(C(=O)c3cscn3)C2)C1`, the cytotoxicity at 70.5 h was -7.64%. In the case of `Cc1ccc(C(=O)N2C[C@@H]3OCCN(CC4CCCC4)[C@@H]3C2)cn1`, the cytotoxicity at 70.5 h is reported as -6.94%. Compound `O=C(Nc1cccnc1)[C@H]1C[C@@H]2CN(Cc3ccc(F)cc3)C[C@H]1O2` has a cytotoxicity at 70.5 h of -7.11%. With `Cc1ccc(CN2C[C@H]3C[C@H](C(=O)Nc4cccnc4)[C@@H](C2)O3)cc1` the cytotoxicity at 70.5 h was 2.68%. For `O=C(c1cccnc1)N1C[C@@H]2OCCN(CCN3CCCC3)[C@@H]2C1`, the cytotoxicity at 70.5 h was -10%. `CCN1Cc2c(C(=O)NC(C)C(C)C)ncn2-c2ccccc2S1(=O)=O` (centres undefined) gave a cytotoxicity at 70.5 h of 6.35%. With `CN1CCN(Cc2cnc3n2CCN(C(=O)c2ccncc2)C3)CC1` the cytotoxicity at 70.5 h was -10.3%. In the case of `CCCS(=O)(=O)N1CC[C@H]2O[C@H](c3nnc(C)o3)CC[C@H]21`, the cytotoxicity at 70.5 h is reported as 11.3%. In the case of `CCS(=O)(=O)N1CC[C@H]2O[C@H](c3nnc(C)o3)CC[C@H]21`, the cytotoxicity at 70.5 h is reported as -13.4%. Compound `CNC(=O)c1ncn2c1CN(CCC(C)C)S(=O)(=O)c1ccccc1-2` has a cytotoxicity at 70.5 h of -9.5%. Compound `CN1CCN(Cc2cnc3n2CCN(C(=O)c2ccccn2)C3)CC1` has a cytotoxicity at 70.5 h of -12.3%. With `COCC(=O)N1CC[C@@H]2O[C@H](COCc3csc(C)n3)CC[C@@H]21` the cytotoxicity at 70.5 h was -4.59%. For `CN1CCN(Cc2cnc3n2CCN(C(=O)c2ccoc2)C3)CC1`, the cytotoxicity at 70.5 h was -7.31%. `CN1CCN(Cc2cnc3n2CCN(C(=O)c2ccnnc2)C3)CC1` showed a cytotoxicity at 70.5 h of -14.6%. Work on `CN1CCN(Cc2cnc3n2CCN(C(=O)c2cnccn2)C3)CC1` yielded a cytotoxicity at 70.5 h of -4.26%. `CCS(=O)(=O)N1CC[C@H]2O[C@@H](c3nnc(C)o3)CC[C@H]21` showed a cytotoxicity at 70.5 h of -8.41%. In the case of `CCOCC1CN(S(=O)(=O)C2CC2)Cc2cnn(C)c21` (centres undefined), the cytotoxicity at 70.5 h is reported as 20%. `Cc1ccc(C(=O)N2CC[C@@]3(O)CCN(C(=O)N(C)C)C[C@H]3C2)cc1Cl` showed a cytotoxicity at 70.5 h of -8.07%. With `CCCc1cc(C(=O)N2Cc3cnc(C(C)(C)C)nc3C2)ccn1` the cytotoxicity at 70.5 h was 0.0745%. `CNc1ncccc1CN1CCN(c2cc(NC3CC3)nc(N)n2)CC1` showed a cytotoxicity at 70.5 h of 0.197%. For `Cc1cccc(C(=O)N2CC[C@]3(C[C@H](OCc4ccccn4)CO3)C2)c1`, the cytotoxicity at 70.5 h was 11.1%. In the case of `c1cnc(NC2COC3(CCN(Cc4nccs4)CC3)C2)cn1` (centres undefined), the cytotoxicity at 70.5 h is reported as -8.19%. `O=C(Cc1cccs1)N1CCn2cc(Cn3cccn3)nc2C1` gave a cytotoxicity at 70.5 h of -13.4%. Work on `O=C(c1ccncc1F)N1CC[C@@H]2CN(c3ncccn3)CCO[C@@H]2C1` yielded a cytotoxicity at 70.5 h of -11.2%. Work on `O=C(c1ccccc1)N1CCC[C@]2(C[C@@H](OCc3ccccn3)CO2)C1` yielded a cytotoxicity at 70.5 h of -13.1%. Compound `Cn1nccc1C(=O)N1CC[C@]2(C[C@H](OCc3ccccn3)CO2)C1` has a cytotoxicity at 70.5 h of -11.1%. With `Cc1ccc(C(=O)N2CCC3(CC2)CC(c2cnn(C)c2)CO3)cn1` (centres undefined) the cytotoxicity at 70.5 h was -10.6%. `O=C([C@H]1C[C@H]2OCC[C@H]2N(Cc2ccc(F)cc2)C1)N1CCCCO1` gave a cytotoxicity at 70.5 h of 20.6%. Compound `CNC(=O)N1C[C@H]2C[C@H](C(=O)Nc3cccnc3)[C@@H](C1)O2` has a cytotoxicity at 70.5 h of -2.82%. `O=C([C@H]1C[C@H]2OCC[C@H]2N(CC2CC2)C1)N1CCCCO1` gave a cytotoxicity at 70.5 h of -4.54%. `O=C([C@H]1C[C@H]2OCC[C@H]2N(Cc2ccccn2)C1)N1CCCCO1` gave a cytotoxicity at 70.5 h of -9.44%. Work on `O=C([C@H]1C[C@H]2OCC[C@H]2N(Cc2ccoc2)C1)N1CCCCO1` yielded a cytotoxicity at 70.5 h of -6.32%. With `COCCN1CC[C@@H]2O[C@H](COCc3csc(C)n3)CC[C@@H]21` the cytotoxicity at 70.5 h was -15.2%. Compound `CC1=N[C@@]2(CC[C@@H]3CN(CC4CC4)C[C@@H]32)C(=O)N1CC(C)C` has a cytotoxicity at 70.5 h of -15.3%. `Cc1noc([C@@H]2C[C@H]3CN(C(=O)C4CCN(C)CC4)C[C@H]3O2)n1` showed a cytotoxicity at 70.5 h of -11.3%. Compound `O=S(=O)(c1cccs1)N1CC[C@@H](O)[C@@H]1Cc1ccncc1` has a cytotoxicity at 70.5 h of 18%. `OCCOCc1ncn2c1CN(Cc1cccs1)CCC2` gave a cytotoxicity at 70.5 h of 0.851%. Work on `O=C(NCc1ccco1)[C@H]1COC[C@H]2CN(Cc3ccccn3)C[C@H]21` yielded a cytotoxicity at 70.5 h of -8.72%. In the case of `CN1CCN(C2COC3(CCN(Cc4ccsc4)CC3)C2)CC1` (centres undefined), the cytotoxicity at 70.5 h is reported as -8.09%. `O=C([C@H]1C[C@H]2OCC[C@H]2N(Cc2cccnc2)C1)N1CCCCO1` showed a cytotoxicity at 70.5 h of -7.65%. `Cn1cc(C[C@H]2[C@H](O)CCN2Cc2ccncc2)cn1` gave a cytotoxicity at 70.5 h of -5.7%. For `Cc1ncsc1CN1Cc2cn(C)nc2C(COCC2CC2)C1` (centres undefined), the cytotoxicity at 70.5 h was 11.6%. With `CO[C@@H]1CCN(Cc2nccn2C)[C@H]1Cc1cccnc1` the cytotoxicity at 70.5 h was 12.4%. `Cn1cc(CN2CCCC3(CCN(C(=O)c4cnccn4)C3)C2)cn1` (centres undefined) showed a cytotoxicity at 70.5 h of 11.1%. Compound `O=C(Cc1ccccn1)N1CCN2C[C@H](OCCN3CCCC3)C[C@H]2C1` has a cytotoxicity at 70.5 h of 19.7%. `Cc1ccc(CN2CCC3(CC2)CC(N2CCN(C)CC2)CO3)s1` (centres undefined) showed a cytotoxicity at 70.5 h of -9.14%. With `COCC1CN(Cc2ccccn2)Cc2cn(C)nc21` (centres undefined) the cytotoxicity at 70.5 h was -4.86%.
